Measured values taken from US6358885B1, “Substituted phenylheterocyclic herbicides” (Mississippi State University, priority 1992, dated 2002).

Key:
chickweed = assay: Test C preemergence/postemergence greenhouse plant response rating 0 to 100; assay type: in vivo, Stellaria media; conditions: for Plant response rating, Chickweed: 125 g/ha, 0 to 100 scale
Outline: (§1)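 Compounds in non-phytotoxic solvent went onto sandy loam before emergence (seeded one day earlier) or onto plants at the one-to-four leaf stage. Duck salad was treated via flood water (~2.5 cm, maintained) over silt loam.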

velvetleaf = assay: as above; assay type: in vivo, Abutilon theophrasti; conditions: for Plant response rating, Velvetleaf: 125 g/ha, 0 to 100 scale
Outline: as §1

giant foxtail [1] = assay: Test B preemergence/postemergence greenhouse plant response rating 0 to 10; assay type: in vivo, Setaria faberii; conditions: for Plant response rating, Giant foxtail: 0 to 10 scale
Outline: (§2)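 Postemergence treatment of plants two to eighteen cm tall ran alongside preemergence treatment of planted seed, each using compound in a non-phytotoxic solvent.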

lambsquarters = assay: Test C preemergence/postemergence greenhouse plant response rating 0 to 100; assay type: in vivo, Chenopodium album; conditions: for Plant response rating Lambsquarters: 125 g/ha, 0 to 100 scale
Outline: as §1

cheatgrass = assay: Test B preemergence/postemergence greenhouse plant response rating 0 to 10; assay type: in vivo, Bromus secalinus; conditions: for Plant response rating, Cheatgrass: 0 to 10 scale
Outline: as §2

rape = assay: as above; assay type: in vivo, Brassica napus; conditions: for Plant response rating, Rape: 0 to 10 scale
Outline: as §2

pigweed = assay: Test C preemergence/postemergence greenhouse plant response rating 0 to 100; assay type: in vivo, Amaranthusretroflexus; conditions: for Plant response rating Pigweed: 125 g/ha, 0 to 100 scale
Outline: as §1

cotton [2] = assay: Test B preemergence/postemergence greenhouse plant response rating 0 to 10; assay type: in vivo, Gossypium hirsutum; conditions: for Plant response rating, Cotton: 0 to 10 scale
Outline: as §2

crabgrass = assay: as above; assay type: in vivo, Digitaria spp.; conditions: for Plant response rating, Crabgrass: 0 to 10 scale
Outline: as §2

umbrella sedge = assay: Test C flood test plant response rating 0 to 100; assay type: in vivo, Cyperus difformis
Outline: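 Compounds in non-phytotoxic solvent applied preemergence to sandy loam one day after planting, postemergence at the 1–4 leaf stage, or to ~2.5 cm floodwater over silt loam.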

duck salad = assay: Test C flood test plant response rating 0 to 100; assay type: in vivo, Heteranthera limosa
Outline: as §1

cotton [3] = assay: Test C preemergence/postemergence greenhouse plant response rating 0 to 100; assay type: in vivo, Gossypium hirsutum; conditions: for Plant response rating, Cotton: 125 g/ha, 0 to 100 scale
Outline: as §1

barley = assay: as above; assay type: in vivo, Hordeum vulgare; conditions: for Plant response rating Barley Igri: 125 g/ha, 0 to 100 scale
Outline: as §1

soybean = assay: as above; assay type: in vivo, Glycine max; conditions: for Plant response rating, Soybean: 125 g/ha, 0 to 100 scale
Outline: as §1

cocklebur = assay: Test B preemergence/postemergence greenhouse plant response rating 0 to 10; assay type: in vivo, Xanthium pensylvanicum; conditions: for Plant response rating, Cocklebur: 0 to 10 scale
Outline: as §2

bedstraw = assay: as above; assay type: in vivo, Galium aparine; conditions: for Plant response rating, Bedstraw: 0 to 10 scale
Outline: as §2

morningglory = assay: as above; assay type: in vivo, Ipomoea hederacea; conditions: for Plant response rating, Morningglory: 0 to 10 scale
Outline: as §2

giant foxtail [4] = assay: Test C preemergence/postemergence greenhouse plant response rating 0 to 100; assay type: in vivo, Setaria faberii; conditions: for Plant response rating, Giant foxtail: 125 g/ha, 0 to 100 scale
Outline: as §1

[5] = POSTEMERGENCE section, flood test, Rate 2 g/ha
[6] = Rate 8 g/ha, under POSTEMERGENCE head (flood test species)
[7] = Rate 31 g/ha, under POSTEMERGENCE head (flood test species)
[8] = flood test species listed under POSTEMERGENCE, 125 g/ha, 0 to 100 scale

CCOCOc1cc(-c2nn3c(c2Cl)CCCC3)c(F)cc1Cl [Compound 59]
80: Plant response rating Duck salad (duck salad; [8])
7: Plant response rating, Giant foxtail (giant foxtail [1]; Rate 200 g/ha, POSTEMERGENCE) | Plant response rating (0 to 10 scale), Cotton (cotton [2]; PREEMERGENCE, Rate 200 g/ha) | Plant response rating, Cocklebur (cocklebur; POSTEMERGENCE, Rate 50 g/ha)
6: Plant response rating, Giant foxtail (giant foxtail [1]; POSTEMERGENCE, Rate 50 g/ha) | Plant response rating, Cheatgrass (cheatgrass; Rate 200 g/ha, POSTEMERGENCE) | Plant response rating (0 to 10 scale), Morningglory (morningglory; PREEMERGENCE, Rate 200 g/ha)
85: Plant response rating (0 to 100), Lambsquarters (lambsquarters; Rate 31 g/ha, POSTEMERGENCE)
9: Plant response rating, Giant foxtail (giant foxtail [1]; PREEMERGENCE, Rate 50 g/ha)
50: Plant response rating (0 to 100), Velvetleaf (velvetleaf; POSTEMERGENCE, Rate 2 g/ha) | Plant response rating, Cotton (cotton [3]; PREEMERGENCE) | Plant response rating (0 to 100), Barley Igri (barley; Rate 31 g/ha, POSTEMERGENCE) | Plant response rating (0 to 100), Soybean (soybean; Rate 8 g/ha, POSTEMERGENCE) | Plant response rating (0 to 100), Giant foxtail (giant foxtail [4]; Rate 31 g/ha, PREEMERGENCE)
100: Plant response rating, Velvetleaf (velvetleaf; POSTEMERGENCE) | Plant response rating, Velvetleaf (velvetleaf; PREEMERGENCE) | Plant response rating Lambsquarters (lambsquarters; PREEMERGENCE) | Plant response rating (0 to 100), Lambsquarters (lambsquarters; Rate 31 g/ha, PREEMERGENCE) | Plant response rating Pigweed (pigweed; POSTEMERGENCE) | Plant response rating Pigweed (pigweed; PREEMERGENCE) | Plant response rating (0 to 100), Pigweed (pigweed; Rate 8 g/ha, PREEMERGENCE) | Plant response rating (0 to 100), Pigweed (pigweed; Rate 31 g/ha, POSTEMERGENCE) | Plant response rating (0 to 100), Pigweed (pigweed; Rate 31 g/ha, PREEMERGENCE) | Plant response rating, Cotton (cotton [3]; POSTEMERGENCE) | Plant response rating (0 to 100), Cotton (cotton [3]; Rate 8 g/ha, POSTEMERGENCE) | Plant response rating (0 to 100), Cotton (cotton [3]; Rate 31 g/ha, POSTEMERGENCE)
8: Plant response rating (0 to 10 scale), Cocklebur (cocklebur; PREEMERGENCE, Rate 200 g/ha) | Plant response rating, Bedstraw (bedstraw; PREEMERGENCE, Rate 50 g/ha) | Plant response rating, Bedstraw (bedstraw; Rate 200 g/ha, POSTEMERGENCE) | Plant response rating, Morningglory (morningglory; POSTEMERGENCE, Rate 50 g/ha)
40: Plant response rating (0 to 100), Chickweed (chickweed; Rate 8 g/ha, POSTEMERGENCE) | Plant response rating (0 to 100), Velvetleaf (velvetleaf; Rate 8 g/ha, PREEMERGENCE) | Plant response rating (0 to 100), Duck salad (duck salad; [7]) | Plant response rating (0 to 100), Barley Igri (barley; Rate 8 g/ha, POSTEMERGENCE) | Plant response rating (0 to 100), Giant foxtail (giant foxtail [4]; Rate 8 g/ha, POSTEMERGENCE)
30: Plant response rating, Chickweed (chickweed; PREEMERGENCE) | Plant response rating (0 to 100), Lambsquarters (lambsquarters; POSTEMERGENCE, Rate 2 g/ha) | Plant response rating (0 to 100), Pigweed (pigweed; POSTEMERGENCE, Rate 2 g/ha) | Plant response rating (0 to 100), Pigweed (pigweed; Rate 8 g/ha, POSTEMERGENCE) | Plant response rating (0 to 100), Barley Igri (barley; POSTEMERGENCE, Rate 2 g/ha) | Plant response rating (0 to 100), Soybean (soybean; POSTEMERGENCE, Rate 2 g/ha)
5: Plant response rating (0 to 10 scale), Cheatgrass (cheatgrass; PREEMERGENCE, Rate 200 g/ha) | Plant response rating, Rape (rape; PREEMERGENCE, Rate 50 g/ha) | Plant response rating, Crabgrass (crabgrass; PREEMERGENCE, Rate 50 g/ha) | Plant response rating, Crabgrass (crabgrass; Rate 200 g/ha, POSTEMERGENCE)
95: Plant response rating (0 to 100), Velvetleaf (velvetleaf; Rate 31 g/ha, PREEMERGENCE) | Plant response rating Lambsquarters (lambsquarters; POSTEMERGENCE) | Plant response rating (0 to 100), Lambsquarters (lambsquarters; Rate 8 g/ha, PREEMERGENCE) | Plant response rating (0 to 100), Cotton (cotton [3]; POSTEMERGENCE, Rate 2 g/ha)
10: Plant response rating (0 to 100), Chickweed (chickweed; Rate 31 g/ha, PREEMERGENCE) | Plant response rating (0 to 10 scale), Giant foxtail (giant foxtail [1]; PREEMERGENCE, Rate 200 g/ha) | Plant response rating, Rape (rape; POSTEMERGENCE, Rate 50 g/ha) | Plant response rating (0 to 10 scale), Rape (rape; PREEMERGENCE, Rate 200 g/ha) | Plant response rating, Rape (rape; Rate 200 g/ha, POSTEMERGENCE) | Plant response rating, Cotton (cotton [2]; POSTEMERGENCE, Rate 50 g/ha) | Plant response rating, Cotton (cotton [2]; Rate 200 g/ha, POSTEMERGENCE) | Plant response rating (0 to 10 scale), Crabgrass (crabgrass; PREEMERGENCE, Rate 200 g/ha) | Plant response rating (0 to 100), Cotton (cotton [3]; Rate 31 g/ha, PREEMERGENCE) | Plant response rating Barley Igri (barley; PREEMERGENCE) | Plant response rating, Cocklebur (cocklebur; Rate 200 g/ha, POSTEMERGENCE) | Plant response rating, Bedstraw (bedstraw; POSTEMERGENCE, Rate 50 g/ha) | Plant response rating (0 to 10 scale), Bedstraw (bedstraw; PREEMERGENCE, Rate 200 g/ha) | Plant response rating, Morningglory (morningglory; Rate 200 g/ha, POSTEMERGENCE) | Plant response rating (0 to 100), Giant foxtail (giant foxtail [4]; Rate 8 g/ha, PREEMERGENCE)
4: Plant response rating, Cheatgrass (cheatgrass; POSTEMERGENCE, Rate 50 g/ha) | Plant response rating, Cheatgrass (cheatgrass; PREEMERGENCE, Rate 50 g/ha) | Plant response rating, Cotton (cotton [2]; PREEMERGENCE, Rate 50 g/ha) | Plant response rating, Crabgrass (crabgrass; POSTEMERGENCE, Rate 50 g/ha)
0: Plant response rating (0 to 100), Chickweed (chickweed; PREEMERGENCE, Rate 2 g/ha) | Plant response rating (0 to 100), Chickweed (chickweed; Rate 8 g/ha, PREEMERGENCE) | Plant response rating (0 to 100), Velvetleaf (velvetleaf; PREEMERGENCE, Rate 2 g/ha) | Plant response rating (0 to 100), Lambsquarters (lambsquarters; PREEMERGENCE, Rate 2 g/ha) | Plant response rating (0 to 100), Pigweed (pigweed; PREEMERGENCE, Rate 2 g/ha) | Plant response rating (0 to 100), Umbrella sedge (umbrella sedge; [6]) | Plant response rating (0 to 100), Umbrella sedge (umbrella sedge; [7]) | Plant response rating Umbrella sedge (umbrella sedge; [8]) | Plant response rating (0 to 100), Duck salad (duck salad; [5]) | Plant response rating (0 to 100), Duck salad (duck salad; [6]) | Plant response rating (0 to 100), Cotton (cotton [3]; PREEMERGENCE, Rate 2 g/ha) | Plant response rating (0 to 100), Cotton (cotton [3]; Rate 8 g/ha, PREEMERGENCE) | Plant response rating (0 to 100), Barley Igri (barley; PREEMERGENCE, Rate 2 g/ha) | Plant response rating (0 to 100), Barley Igri (barley; Rate 8 g/ha, PREEMERGENCE) | Plant response rating (0 to 100), Barley Igri (barley; Rate 31 g/ha, PREEMERGENCE) | Plant response rating, Soybean (soybean; PREEMERGENCE) | Plant response rating (0 to 100), Soybean (soybean; PREEMERGENCE, Rate 2 g/ha) | Plant response rating (0 to 100), Soybean (soybean; Rate 8 g/ha, PREEMERGENCE) | Plant response rating (0 to 100), Soybean (soybean; Rate 31 g/ha, PREEMERGENCE) | Plant response rating, Cocklebur (cocklebur; PREEMERGENCE, Rate 50 g/ha) | Plant response rating (0 to 100), Giant foxtail (giant foxtail [4]; PREEMERGENCE, Rate 2 g/ha)
60: Plant response rating Barley Igri (barley; POSTEMERGENCE) | Plant response rating (0 to 100), Soybean (soybean; Rate 31 g/ha, POSTEMERGENCE)
20: Plant response rating (0 to 100), Chickweed (chickweed; POSTEMERGENCE, Rate 2 g/ha) | Plant response rating (0 to 100), Giant foxtail (giant foxtail [4]; POSTEMERGENCE, Rate 2 g/ha)
2: Plant response rating, Morningglory (morningglory; PREEMERGENCE, Rate 50 g/ha)
70: Plant response rating (0 to 100), Chickweed (chickweed; Rate 31 g/ha, POSTEMERGENCE) | Plant response rating (0 to 100), Velvetleaf (velvetleaf; Rate 8 g/ha, POSTEMERGENCE) | Plant response rating (0 to 100), Lambsquarters (lambsquarters; Rate 8 g/ha, POSTEMERGENCE) | Plant response rating, Soybean (soybean; POSTEMERGENCE) | Plant response rating (0 to 100), Giant foxtail (giant foxtail [4]; Rate 31 g/ha, POSTEMERGENCE)
90: Plant response rating, Chickweed (chickweed; POSTEMERGENCE) | Plant response rating (0 to 100), Velvetleaf (velvetleaf; Rate 31 g/ha, POSTEMERGENCE) | Plant response rating (0 to 100), Umbrella sedge (umbrella sedge; [5]) | Plant response rating, Giant foxtail (giant foxtail [4]; POSTEMERGENCE) | Plant response rating, Giant foxtail (giant foxtail [4]; PREEMERGENCE)
